Test system: 361931-004-R-J1-PDC multicell spheroid viability
Assay: Anticancer human tumor 361931-004-R-J1-PDC patient-derived colon adenocarcinoma cell line growth inhibition [PI3K]
Conditions: for IC50: curve of first compound; for viability, T/C: stronger effect = lower value
Procedure, shortened: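 Complex 3D spheroids (cancer cells + endothelial HUVEC + mesenchymal stem cells); drug pairs of targeted agent x inavolisib/alpelisib/duvelisib/copanlisib; half-log series from ~Cmax, max 10 microM if Cmax unknown; endpoint viability.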

[1] = second compound 0.0316 µM, first compound 0.0316 µM
[2] = second compound 0.0316 µM, first compound 0.1 µM
[3] = second compound 0.0316 µM, first compound 0.316 µM
[4] = second compound 0.0316 µM, first compound 1 µM
[5] = second compound 0.0316 µM, first compound 3.16 µM
[6] = second compound 0.0316 µM, first compound 10 µM
[7] = second compound 0.1 µM, first compound 0.0316 µM
[8] = second compound 0.1 µM, first compound 0.1 µM
[9] = second compound 0.1 µM, first compound 0.316 µM
[10] = second compound 0.1 µM, first compound 1 µM
[11] = second compound 0.1 µM, first compound 3.16 µM
[12] = second compound 0.1 µM, first compound 10 µM
[13] = second compound 0.316 µM, first compound 0.0316 µM
[14] = second compound 0.316 µM, first compound 0.1 µM
[15] = second compound 0.316 µM, first compound 0.316 µM
[16] = second compound 0.316 µM, first compound 1 µM
[17] = second compound 0.316 µM, first compound 3.16 µM
[18] = second compound 0.316 µM, first compound 10 µM
[19] = second compound 1 µM, first compound 0.0316 µM
[20] = second compound 1 µM, first compound 0.1 µM
[21] = second compound 1 µM, first compound 0.316 µM
[22] = second compound 1 µM, first compound 1 µM
[23] = second compound 1 µM, first compound 3.16 µM
[24] = second compound 1 µM, first compound 10 µM
[25] = second compound 3.16 µM, first compound 0.0316 µM
[26] = second compound 3.16 µM, first compound 0.1 µM
[27] = second compound 3.16 µM, first compound 0.316 µM
[28] = second compound 3.16 µM, first compound 1 µM
[29] = second compound 3.16 µM, first compound 3.16 µM
[30] = second compound 3.16 µM, first compound 10 µM
[31] = second compound 10 µM, first compound 0.0316 µM
[32] = second compound 10 µM, first compound 0.1 µM
[33] = second compound 10 µM, first compound 0.316 µM
[34] = second compound 10 µM, first compound 1 µM
[35] = second compound 10 µM, first compound 3.16 µM
[36] = second compound 10 µM, first compound 10 µM
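Note: spheroids exposed to agents for seven days before readout.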

**Q.** Which IC50 (second compound 0.0316 µM) does the source give for `CC1(C)CCC(CN2CCN(c3ccc(C(=O)NS(=O)(=O)c4ccc(NCC5CCOCC5)c([N+](=O)[O-])c4)c(Oc4cnc5[nH]ccc5c4)c3)CC2)=C(c2ccc(Cl)cc2)C1` + CC(Nc1ncnc2nc[nH]c12)c1cc2cccc(Cl)c2c(=O)n1-c1ccccc1 here?
**A.** 5.36 µM

**Q.** And the IC50 (second compound 0.1 µM)?
**A.** 5.02 µM

**Q.** What about the IC50 (second compound 0.316 µM) of the same compound?
**A.** 5.04 µM

**Q.** What about the IC50 (second compound 1 µM) of the same compound?
**A.** 5.15 µM

**Q.** And the IC50 (second compound 3.16 µM)?
**A.** 5.25 µM

**Q.** And the IC50 (second compound 10 µM)?
**A.** 4.96 µM

**Q.** What about the viability, T/C [1] of the same compound?
**A.** 105%

**Q.** And the viability, T/C [2]?
**A.** 98.3%

**Q.** What about the viability, T/C [3] of the same compound?
**A.** 104%

**Q.** And the viability, T/C [4]?
**A.** 93.4%

**Q.** What about the viability, T/C [5] of the same compound?
**A.** 89.4%

**Q.** And the viability, T/C [6]?
**A.** 3.37%

**Q.** And the viability, T/C [7]?
**A.** 110%

**Q.** What about the viability, T/C [8] of the same compound?
**A.** 95.2%

**Q.** And the viability, T/C [9]?
**A.** 97.7%

**Q.** What about the viability, T/C [10] of the same compound?
**A.** 102%

**Q.** What about the viability, T/C [11] of the same compound?
**A.** 81.2%

**Q.** What about the viability, T/C [12] of the same compound?
**A.** 3.38%

**Q.** What about the viability, T/C [13] of the same compound?
**A.** 108%

**Q.** And the viability, T/C [14]?
**A.** 97.2%

**Q.** And the viability, T/C [15]?
**A.** 106%

**Q.** What about the viability, T/C [16] of the same compound?
**A.** 106%

**Q.** What about the viability, T/C [17] of the same compound?
**A.** 81.7%

**Q.** And the viability, T/C [18]?
**A.** 3.3%

**Q.** And the viability, T/C [19]?
**A.** 103%

**Q.** What about the viability, T/C [20] of the same compound?
**A.** 99.2%

**Q.** What about the viability, T/C [21] of the same compound?
**A.** 106%

**Q.** What about the viability, T/C [22] of the same compound?
**A.** 102%

**Q.** And the viability, T/C [23]?
**A.** 84%

**Q.** And the viability, T/C [24]?
**A.** 3.62%

**Q.** And the viability, T/C [25]?
**A.** 102%

**Q.** What about the viability, T/C [26] of the same compound?
**A.** 109%

**Q.** What about the viability, T/C [27] of the same compound?
**A.** 96%

**Q.** And the viability, T/C [28]?
**A.** 96.5%

**Q.** And the viability, T/C [29]?
**A.** 86.8%

**Q.** What about the viability, T/C [30] of the same compound?
**A.** 3.29%

**Q.** And the viability, T/C [31]?
**A.** 109%

**Q.** And the viability, T/C [32]?
**A.** 99.6%

**Q.** And the viability, T/C [33]?
**A.** 107%

**Q.** And the viability, T/C [34]?
**A.** 107%

**Q.** What about the viability, T/C [35] of the same compound?
**A.** 80.1%

**Q.** And the viability, T/C [36]?
**A.** 3.09%

**Q.** Which results are given for `C[C@@H](NC(=O)c1ncnc(N)c1Cl)c1ncc(C(=O)Nc2cc(C(F)(F)F)c(Cl)cn2)s1` + CC(Nc1ncnc2nc[nH]c12)c1cc2cccc(Cl)c2c(=O)n1-c1ccccc1?
**A.** IC50 (second compound 0.0316 µM): > 10 µM; IC50 (second compound 0.1 µM): > 10 µM; IC50 (second compound 0.316 µM): > 10 µM; IC50 (second compound 1 µM): > 10 µM; IC50 (second compound 3.16 µM): > 10 µM; IC50 (second compound 10 µM): > 10 µM; viability, T/C [1]: 105%; viability, T/C [2]: 102%; viability, T/C [3]: 99.2%; viability, T/C [4]: 94.1%; viability, T/C [5]: 104%; viability, T/C [6]: 98%; viability, T/C [7]: 101%; viability, T/C [8]: 101%; viability, T/C [9]: 96%; viability, T/C [10]: 95.3%; viability, T/C [11]: 104%; viability, T/C [12]: 94.6%; viability, T/C [13]: 105%; viability, T/C [14]: 103%; viability, T/C [15]: 107%; viability, T/C [16]: 104%; viability, T/C [17]: 106%; viability, T/C [18]: 93.7%; viability, T/C [19]: 98.8%; viability, T/C [20]: 99.9%; viability, T/C [21]: 107%; viability, T/C [22]: 103%; viability, T/C [23]: 106%; viability, T/C [24]: 91.7%; viability, T/C [25]: 88.6%; viability, T/C [26]: 110%; viability, T/C [27]: 107%; viability, T/C [28]: 99.5%; viability, T/C [29]: 107%; viability, T/C [30]: 101%; viability, T/C [31]: 101%; viability, T/C [32]: 96.7%; viability, T/C [33]: 107%; viability, T/C [34]: 107%; viability, T/C [35]: 104%; viability, T/C [36]: 87.7%

**Q.** How did the IC50 (second compound 0.0316 µM) turn out when `Cn1ncnc1[C@H]1c2n[nH]c(=O)c3cc(F)cc(c23)N[C@@H]1c1ccc(F)cc1` + CC(Nc1ncnc2nc[nH]c12)c1cc2cccc(Cl)c2c(=O)n1-c1ccccc1 was run?
**A.** > 0.1 µM

**Q.** And the IC50 (second compound 0.1 µM)?
**A.** > 0.1 µM

**Q.** And the IC50 (second compound 0.316 µM)?
**A.** > 0.1 µM

**Q.** What about the IC50 (second compound 1 µM) of the same compound?
**A.** > 0.1 µM

**Q.** And the IC50 (second compound 3.16 µM)?
**A.** > 0.1 µM

**Q.** And the IC50 (second compound 10 µM)?
**A.** > 0.1 µM

**Q.** And the viability, T/C (second compound 0.0316 µM, first compound 0.000316 µM)?
**A.** 97.9%

**Q.** And the viability, T/C (second compound 0.0316 µM, first compound 0.001 µM)?
**A.** 106%

**Q.** And the viability, T/C (second compound 0.0316 µM, first compound 0.00316 µM)?
**A.** 102%

**Q.** And the viability, T/C (second compound 0.0316 µM, first compound 0.01 µM)?
**A.** 99.1%

**Q.** And the viability, T/C [1]?
**A.** 107%

**Q.** And the viability, T/C [2]?
**A.** 106%

**Q.** What about the viability, T/C (second compound 0.1 µM, first compound 0.000316 µM) of the same compound?
**A.** 110%

**Q.** What about the viability, T/C (second compound 0.1 µM, first compound 0.001 µM) of the same compound?
**A.** 104%

**Q.** And the viability, T/C (second compound 0.1 µM, first compound 0.00316 µM)?
**A.** 109%

**Q.** And the viability, T/C (second compound 0.1 µM, first compound 0.01 µM)?
**A.** 103%

**Q.** What about the viability, T/C [7] of the same compound?
**A.** 101%

**Q.** What about the viability, T/C [8] of the same compound?
**A.** 108%

**Q.** And the viability, T/C (second compound 0.316 µM, first compound 0.000316 µM)?
**A.** 107%

**Q.** What about the viability, T/C (second compound 0.316 µM, first compound 0.001 µM) of the same compound?
**A.** 108%

**Q.** What about the viability, T/C (second compound 0.316 µM, first compound 0.00316 µM) of the same compound?
**A.** 103%

**Q.** What about the viability, T/C (second compound 0.316 µM, first compound 0.01 µM) of the same compound?
**A.** 97%

**Q.** And the viability, T/C [13]?
**A.** 105%

**Q.** What about the viability, T/C [14] of the same compound?
**A.** 100%

**Q.** And the viability, T/C (second compound 1 µM, first compound 0.000316 µM)?
**A.** 99.5%

**Q.** What about the viability, T/C (second compound 1 µM, first compound 0.001 µM) of the same compound?
**A.** 99%

**Q.** And the viability, T/C (second compound 1 µM, first compound 0.00316 µM)?
**A.** 102%

**Q.** And the viability, T/C (second compound 1 µM, first compound 0.01 µM)?
**A.** 95.2%

**Q.** What about the viability, T/C [19] of the same compound?
**A.** 97.8%

**Q.** And the viability, T/C [20]?
**A.** 95.2%

**Q.** And the viability, T/C (second compound 3.16 µM, first compound 0.000316 µM)?
**A.** 102%

**Q.** And the viability, T/C (second compound 3.16 µM, first compound 0.001 µM)?
**A.** 111%

**Q.** And the viability, T/C (second compound 3.16 µM, first compound 0.00316 µM)?
**A.** 107%

**Q.** And the viability, T/C (second compound 3.16 µM, first compound 0.01 µM)?
**A.** 101%

**Q.** And the viability, T/C [25]?
**A.** 102%

**Q.** And the viability, T/C [26]?
**A.** 102%

**Q.** And the viability, T/C (second compound 10 µM, first compound 0.000316 µM)?
**A.** 102%

**Q.** What about the viability, T/C (second compound 10 µM, first compound 0.001 µM) of the same compound?
**A.** 113%

**Q.** What about the viability, T/C (second compound 10 µM, first compound 0.00316 µM) of the same compound?
**A.** 102%

**Q.** What about the viability, T/C (second compound 10 µM, first compound 0.01 µM) of the same compound?
**A.** 100%

**Q.** What about the viability, T/C [31] of the same compound?
**A.** 102%

**Q.** What about the viability, T/C [32] of the same compound?
**A.** 98.5%

Source: PubChem BioAssay AID1963979 (Molecular Pharmacology Branch, DTP, NCI, 2024)
